# Measured values published in patent US20220144848A1, “SUBSTITUTED OXOPYRIDINE DERIVATIVES” (Bayer Aktiengesellschaft, priority 2018, published 2022).
# What was measured:
# human plasma kallikrein = biological target: T1, human plasma kallikrein (Homo sapiens, UniProt P03952); experiment: Determination of the plasma kallikrein activity (fluorogenic peptide substrate H-Pro-Phe-Arg-AMC); format: biochemical; conditions: plasma kallikrein from Kordia, 15 min preincubation, 30 min at 22° C., fluorescence; some as mean values from multiple determinations
# T1 construct: purchased Kordia
# Experimental: (§1) To determine the plasma kallikrein inhibition of the substances according to the invention, a biochemical test system is used which utilizes the reaction of a peptidic plasma kallikrein substrate to determine the enzymatic activity of human plasma kallikrein. Here, plasma kallikrein cleaves from the peptidic plasma kallikrein substrate the C-terminal aminomethylcoumarin (AMC), the fluorescence of which is measured. The determinations are carried out in microtitre plates.
# Test substances are dissolved in dimethyl sulfoxide and serially diluted in dimethyl sulfoxide (3000 μM to 0.0078 μM; resulting final concentrations in the test: 50 μM to 0.00013 μM). In each case 1 μl of the diluted substance solutions is placed into the wells of white microtitre plates from Greiner (384 wells). 20 μl of assay buffer (50 mM Tris/HCl pH 7.4; 100 mM sodium chloride solution; 5 mM of calcium chloride solution; 0.1% of bovine serum albumin) and 20 μl of plasma kallikrein from Kordia (0.6 nM in assay buffer) are then added successively. After 15 min of incubation, the enzyme reaction is started by addition of 20 μl of the substrate H-Pro-Phe-Arg-AMC dissolved in assay buffer (10 μM in assay buffer) from Bachem, the mixture is incubated at room temperature (22° C.) for 30 min and fluorescence is then measured (excitation: 360 nm, emission: 460 nm). The measured emissions of the test batches with test substance are compared to those of control batches without test substance (only dimethyl sulfoxide instead of test substance in dimethyl sulfoxide), and IC50 values are calculated from the concentration/activity relationships. Activity data from this test are listed in Table B below (some as mean values from multiple independent individual determinations): […]
# human factor XIa = biological target: T2, human factor XIa (Homo sapiens, UniProt P03951); experiment: Measurement of FXIa inhibition (fluorogenic peptide substrate Boc-Glu(OBzl)-Ala-Arg-AMC); format: biochemical; conditions: factor XIa from Kordia, 15 min preincubation, 30 min at 22° C., fluorescence; some as mean values from multiple determinations
# T2 construct: purchased Kordia
# Experimental: as §1, with “The factor XIa” for “To determine the plasma kallikrein”, “invention is determined using” for “invention,”, “system” for “system is used”, “factor XIa” for “plasma kallikrein”, “factor XIa.” for “plasma kallikrein.”
# Test substances are dissolved in dimethyl sulfoxide and serially diluted in dimethyl sulfoxide (3000 μM to 0.0078 μM; resulting final concentrations in the test: 50 μM to 0.00013 μM). In each case 1 μl of the diluted substance solutions is placed into the wells of white microtitre plates from Greiner (384 wells). 20 μl of assay buffer (50 mM of Tris/HCl pH 7.4; 100 mM of sodium chloride; 5 mM of calcium chloride; 0.1% of bovine serum albumin) and 20 μl of factor XIa from Kordia (0.45 nM in assay buffer) are then added successively. After 15 min of incubation, the enzyme reaction is started by addition of 20 μl of the factor XIa substrate Boc-Glu(OBzl)-Ala-Arg-AMC dissolved in assay buffer (10 μM in assay buffer) from Bachem, the mixture is incubated at room temperature (22° C.) for 30 min and fluorescence is then measured (excitation: 360 nm, emission: 460 nm). The measured emissions of the test batches with test substance are compared to those of control batches without test substance (only dimethyl sulfoxide instead of test substance in dimethyl sulfoxide), and IC50 values are calculated from the concentration/activity relationships.
# T2 sequence (P03951 388-625 limits assumed): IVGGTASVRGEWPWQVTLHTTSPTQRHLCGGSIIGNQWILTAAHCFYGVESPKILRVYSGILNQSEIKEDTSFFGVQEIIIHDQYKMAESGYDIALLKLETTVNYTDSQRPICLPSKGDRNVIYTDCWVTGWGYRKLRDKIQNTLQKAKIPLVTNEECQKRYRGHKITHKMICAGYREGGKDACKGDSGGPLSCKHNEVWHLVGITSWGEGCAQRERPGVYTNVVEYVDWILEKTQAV
# T2 sequence (P03951 19-387 partner limits assumed): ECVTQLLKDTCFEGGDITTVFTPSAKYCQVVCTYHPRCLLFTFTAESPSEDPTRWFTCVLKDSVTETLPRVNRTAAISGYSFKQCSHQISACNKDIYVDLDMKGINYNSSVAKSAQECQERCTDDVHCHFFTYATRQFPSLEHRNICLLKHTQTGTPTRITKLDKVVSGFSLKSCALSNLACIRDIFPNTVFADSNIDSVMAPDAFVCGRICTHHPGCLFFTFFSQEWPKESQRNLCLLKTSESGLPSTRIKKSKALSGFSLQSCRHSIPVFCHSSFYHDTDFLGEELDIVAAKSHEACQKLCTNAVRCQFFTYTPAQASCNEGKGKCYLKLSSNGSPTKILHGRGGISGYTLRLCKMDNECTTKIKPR
# T1 sequence (P03952 391-638 limits assumed): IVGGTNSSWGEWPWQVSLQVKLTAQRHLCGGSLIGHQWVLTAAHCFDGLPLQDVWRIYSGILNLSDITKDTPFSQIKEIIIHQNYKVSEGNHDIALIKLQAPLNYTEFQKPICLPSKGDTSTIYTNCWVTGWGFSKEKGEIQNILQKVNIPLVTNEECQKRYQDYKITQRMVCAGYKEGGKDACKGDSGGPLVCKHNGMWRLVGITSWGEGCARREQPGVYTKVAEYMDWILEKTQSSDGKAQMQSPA
# T1 sequence (P03952 20-390 partner limits assumed): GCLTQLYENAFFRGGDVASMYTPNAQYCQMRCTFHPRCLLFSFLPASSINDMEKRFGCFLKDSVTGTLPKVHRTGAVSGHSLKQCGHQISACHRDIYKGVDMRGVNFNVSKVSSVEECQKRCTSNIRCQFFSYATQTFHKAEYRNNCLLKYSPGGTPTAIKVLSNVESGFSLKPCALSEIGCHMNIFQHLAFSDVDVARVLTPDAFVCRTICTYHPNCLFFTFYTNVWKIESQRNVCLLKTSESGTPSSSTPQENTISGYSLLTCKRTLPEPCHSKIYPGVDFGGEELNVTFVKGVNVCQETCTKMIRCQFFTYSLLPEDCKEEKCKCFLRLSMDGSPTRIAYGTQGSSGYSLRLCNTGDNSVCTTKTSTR
Compound,IC50 (human plasma kallikrein) [µM],IC50 (human factor XIa) [µM]
"C[C@@H]1Cc2ccc(Cl)cc2-c2cc(=O)n([C@@H](CCOC3CC3)C(=O)Nc3ccc(C(N)=O)cc3)cc2CO1 (single isomer, unassigned) [Example 27]",0.071,0.0066
"CC[C@@H](C(=O)Nc1ccc(C(N)=O)cc1)n1cc2c(cc1=O)-c1c(ccc(Cl)c1F)C[C@@H](C)OC2 (single isomer, unassigned) [Example 28]",0.19,0.012
"NC(=O)c1ccc(NC(=O)[C@H](C[C@@H]2COCCO2)n2cc3c(cc2=O)-c2cc(Cl)ccc2C[C@@H](CO)OC3)cc1 (single isomer, unassigned) [Example 37]",0.32,0.006
"CC(C)[C@@H]1Cc2ccc(Cl)cc2-c2cc(=O)n([C@@H](C[C@@H]3COCCO3)C(=O)Nc3ccc(C(N)=O)cc3)cc2CO1 (single isomer, unassigned) [Example 43]",0.38,0.0017
"CC(C)[C@@H]1Cc2ccc(Cl)cc2-c2cc(=O)n([C@@H](C[C@@H]3COCCO3)C(=O)Nc3ccc4nn(C)nc4c3)cc2CO1 (single isomer, unassigned) [Example 45]",0.66,0.017
"CC[C@@H](C(=O)Nc1ccc(C(N)=O)c(F)c1)n1cc2c(cc1=O)-c1cc(Cl)ccc1C[C@@H](C(F)F)OC2 (single isomer, unassigned) [Example 47]",1.5,0.056
"NC(=O)c1ccc(NC(=O)[C@H](C[C@@H]2CCCCO2)n2cc3c(cc2=O)-c2cc(Cl)ccc2C[C@@H](C(F)F)OC3)cc1F (single isomer, unassigned) [Example 49]",0.37,0.0047
"NC(=O)c1ccc(NC(=O)[C@H](C[C@@H]2CCCCO2)n2cc3c(cc2=O)-c2cc(Cl)ccc2C[C@@H](C(F)(F)F)OC3)cn1 (single isomer, unassigned) [Example 53]",0.3,0.0023
"NC(=O)c1ccc(NC(=O)[C@H](C[C@@H]2COCCO2)n2cc3c(cc2=O)-c2cc(Cl)ccc2C[C@@H](C(F)(F)F)OC3)cc1 (single isomer, unassigned) [Example 59]",0.089,0.0009
"COCC[C@@H](C(=O)Nc1ccc(C(N)=O)cc1)n1cc2c(cc1=O)-c1cc(Cl)ccc1C[C@@H](C(F)(F)F)OC2 (single isomer, unassigned) [Example 63]",0.11,0.0025
"NC(=O)c1ccc(NC(=O)[C@H](C[C@@H]2CCCCO2)n2cc3c(cc2=O)-c2c(ccc(Cl)c2F)C[C@@H](C(F)(F)F)OC3)cc1 (single isomer, unassigned) [Example 69]",0.055,0.0011
"CC[C@@H](C(=O)Nc1ccc(C(N)=O)cc1)n1cc2c(cc1=O)-c1c(ccc(Cl)c1Cl)C[C@@H](C(F)(F)F)OC2 (single isomer, unassigned) [Example 70]",0.58,0.064
"CC[C@@H](C(=O)Nc1ccc(C(N)=O)c(F)c1)n1cc2c(cc1=O)-c1cc(Cl)ccc1C[C@@H](C)O[C@H]2C (single isomer, unassigned) [Example 71]",0.225,0.0035
"C[C@@H]1Cc2ccc(Cl)cc2-c2cc(=O)n([C@@H](C[C@@H]3CCCCO3)C(=O)Nc3ccc(C(N)=O)cc3)cc2[C@H](C)O1 (single isomer, unassigned) [Example 73]",0.027,0.0008
"CO[C@@H](C)C[C@@H](C(=O)Nc1ccc(C(N)=O)cc1)n1cc2c(cc1=O)-c1cc(Cl)ccc1C[C@@H](C)O[C@H]2C (single isomer, unassigned) [Example 74]",0.03,0.0014
"CC[C@@H](C(=O)Nc1ccc(C(N)=O)cc1)n1cc2c(cc1=O)-c1c(ccc(Cl)c1F)C[C@@H](C)O[C@H]2C (single isomer, unassigned) [Example 75]",0.04,0.0059

# Next, values leading:
IC50 (human plasma kallikrein) [µM],IC50 (human factor XIa) [µM],Compound
0.047,0.0016,"CO[C@@H](C)C[C@@H](C(=O)Nc1ccc(C(N)=O)cc1)n1cc2c(cc1=O)-c1c(ccc(Cl)c1F)C[C@@H](C)OC2 (single isomer, unassigned) [Example 29]"
0.98,0.013,"CC[C@@H]1Cc2ccc(Cl)cc2-c2cc(=O)n([C@@H](C[C@@H]3CCCCO3)C(=O)Nc3ccc(C(N)=O)c(F)c3)cc2CO1 (single isomer, unassigned) [Example 31]"
0.48,0.0091,"NC(=O)c1ccc(NC(=O)[C@H](C[C@@H]2CCCCO2)n2cc3c(cc2=O)-c2cc(Cl)ccc2C[C@@H](CO)OC3)cc1F (single isomer, unassigned) [Example 33]"
0.17,0.0021,"NC(=O)c1ccc(NC(=O)[C@H](C[C@@H]2CCCCO2)n2cc3c(cc2=O)-c2cc(Cl)ccc2C[C@@H](CO)OC3)cc1 (single isomer, unassigned) [Example 35]"
1.6,0.01,"CC(C)[C@@H]1Cc2ccc(Cl)cc2-c2cc(=O)n([C@@H](C[C@@H]3COCCO3)C(=O)Nc3ccc(C(N)=O)c(F)c3)cc2CO1 (single isomer, unassigned) [Example 41]"
0.36,0.0042,"NC(=O)c1ccc(NC(=O)[C@H](C[C@@H]2CCCCO2)n2cc3c(cc2=O)-c2cc(Cl)ccc2C[C@@H](C(F)(F)F)OC3)cc1F (single isomer, unassigned) [Example 51]"
0.091,0.0005,"NC(=O)c1ccc(NC(=O)[C@H](C[C@@H]2CCCCO2)n2cc3c(cc2=O)-c2cc(Cl)ccc2C[C@@H](C(F)(F)F)OC3)cc1 (single isomer, unassigned) [Example 55]"
0.31,0.0038,"NC(=O)c1ccc(NC(=O)[C@H](C[C@@H]2COCCO2)n2cc3c(cc2=O)-c2cc(Cl)ccc2C[C@@H](C(F)(F)F)OC3)cc1F (single isomer, unassigned) [Example 57]"
0.34,0.01,"COCC[C@@H](C(=O)Nc1ccc(C(N)=O)c(F)c1)n1cc2c(cc1=O)-c1cc(Cl)ccc1C[C@@H](C(F)(F)F)OC2 (single isomer, unassigned) [Example 61]"
0.12,0.0068,"COCC[C@@H](C(=O)Nc1ccn2ncnc2c1)n1cc2c(cc1=O)-c1cc(Cl)ccc1C[C@@H](C(F)(F)F)OC2 (single isomer, unassigned) [Example 65]"
0.22,0.0035,"CO[C@@H](C)C[C@@H](C(=O)Nc1ccc(C(N)=O)cc1)n1cc2c(cc1=O)-c1cc(Cl)ccc1C[C@@H](C(F)(F)F)OC2 (single isomer, unassigned) [Example 67]"
0.17,0.0069,"CC[C@@H](C(=O)Nc1ccc(C(N)=O)cc1)n1cc2c(cc1=O)-c1c(ccc(Cl)c1F)C[C@@H](C(F)(F)F)OC2 (single isomer, unassigned) [Example 68]"
0.065,0.0025,"C[C@@H]1Cc2ccc(Cl)cc2-c2cc(=O)n([C@@H](C[C@@H]3CCCCO3)C(=O)Nc3ccc(C(N)=O)c(F)c3)cc2[C@H](C)O1 (single isomer, unassigned) [Example 72]"
0.19,0.0098,"C[C@@H]1Cc2ccc(Cl)cc2-c2cc(=O)n([C@@H](C)C(=O)Nc3ccc(C(N)=O)cc3)cc2CO1 (single isomer, unassigned) [Example 76]"
0.22,0.0096,"C[C@@H](C(=O)Nc1ccc(C(N)=O)cc1)n1cc2c(cc1=O)-c1c(ccc(Cl)c1F)C[C@@H](C(F)(F)F)OC2 (single isomer, unassigned) [Example 77]"
